{"source": "paper PMC8238065", "about": "“Prodrug-based nano-delivery strategy to improve the antitumor ability of carboplatin in vivo and in vitro” (Drug Delivery, 2021)", "key": {"H460 cells": {"tested_on": "H460 cells", "experiment": "MTT cytotoxicity, H460 cells", "format": "cell-based", "conditions": "500 μM, 72 h", "procedure": "The NSCLC A549 and H460 cells were incubated in 1640 medium containing 10% fetal bovine serum albumin, and these cells were stored in a humidified environment of 37 °C and 5% carbon dioxide.\nIn order to investigate the cytotoxicity of PEG-CAR-C16 micelles, the cell inhibition rates of A549 and H460 cells were determined by the MTT. Primarily, A549 and H460 cell lines were respectively cultured in 1640 culture medium, then transferred into a 96-well plate and incubated for 24 h under the condition of 37 °C, 5% CO2. Then, CAR and PEG-CAR-C16 micelles solution with different concentrations (15–500 μM) were added into the 96-well plate and incubated for 24, 48, and 72 h, respectively. After added with 10 μL of MTT solution to each well, the cells were incubated at 37 °C for 4 h again. Finally, the solution was removed, 100 μL of DMSO was then added to dissolve the produced formazan crystals and the […] were recorded by microplate reader. The cytotoxicity of PEG-CAR-C16 micelles could be expressed by cell inhibition rate."}, "H460 tumor": {"tested_on": "H460 tumor", "experiment": "In vivo antitumor experiment in H460 tumor-bearing nude mice", "conditions": "tail vein injection twice a week for two weeks, CAR 0.75 and 1.5 mg·kg^−1, equivalent PEG-CAR-C16 5.5 and 11.0 mg·kg^−1", "procedure": "The female nude mice models (5–6 weeks old, 18–22 g) used in the experiment were purchased from Unilever (London, UK), and the experiment was conducted in accordance with the principle of protection of experimental animals. To establish animal model of NSCLC, 0.2 mL of H460 cells with concentration density about 1.0 × 10^7/mL were inoculated to the left axilla of the mice. The volume of tumors was measured and recorded using a vernier caliper.\nWhen the average tumor volume of nude mice inoculated with H460 cells grown to about 100 mm^3, the mice were randomly divided into […] (n = 6) including normal saline group (I, NS), CAR group (II, 0.75 mg·kg^−1), equivalent PEG-CAR-C16 group (IV, 5.5 mg·kg^−1), CAR group (III, 1.5 mg·kg^−1), equivalent PEG-CAR-C16 group (V, 11.0 mg·kg^−1). The mice in each group were given drugs by tail vein injection twice a week for two weeks. The volume of tumor was measured every two days and calculated according to the long diameter a and the short diameter b. The tumor inhibition rate is expressed as follows: tumor volume (Vt)=a×b^2/2."}, "[1]": {"experiment": "In vivo pharmacokinetics of Pt after intravenous injection (ICP-MS)", "parameters": "species or system Wistar rats", "conditions": "Pt in rats, equivalent CAR dose 1.5 mg·kg^−1", "procedure": "To conduct the pharmacokinetic tests, six female Wistar rats (Harlan, Israel, 200 ± 20 g) were randomly administered into two groups primarily. The CAR solution was prepared by dissolving CAR in 5% glucose solution, and the PEG-CAR-C16 polymer micelles were prepared by hydrating the thin film using 5% glucose solution during the micelle formation. Then CAR and PEG-CAR-C16 polymer micelles (the equivalent CAR does was 1.5 mg·kg^−1) were injected intravenously. After collected from the treated […] within a specified time point, the blood samples were centrifuged at 3000 rpm for 10 min, and then the centrifuged samples were frozen at −20 °C for further use. All the blood samples were processed by microwave digestion and then the Pt concentration was examined by using inductively coupled plasma mass spectrometry (ICP-MS). The representative pharmacokinetic parameters were calculated by DAS2.0."}}}
{"smiles": "N.N.O=C([O-])C1(C(=O)[O-])CCC1.[Pt+2]", "note": "[CAR, Carboplatin]", "values": [{"measurement": "cell viability rate", "setting": "H460 cells", "result": 51.6, "unit": "%"}, {"measurement": "tumor volume growth / tumor inhibition effect", "setting": "H460 tumor", "result": "could control the growth of tumor volume effectively"}, {"measurement": "AUC0–∞", "setting": "[1]", "result": "4.84 ± 1.58", "unit": "mg·L^–1·h"}, {"measurement": "CL", "setting": "[1]", "result": "0.57 ± 0.11", "unit": "L·h^–1·kg^–1"}, {"measurement": "MRT0–∞", "setting": "[1]", "result": "4.72 ± 0.91", "unit": "h"}, {"measurement": "Vd", "setting": "[1]", "result": "0.66 ± 0.15", "unit": "L·kg^–1"}, {"measurement": "t1/2", "setting": "[1]", "result": "1.90 ± 1.91", "unit": "h"}]}
